Read-outs that look alike come from different tables or passages of the source.
Key:
Type in all cases: in vivo
[1] = test system: chickweed (STEME, Stellaria media); experiment: Postemergence greenhouse trial, herbicidal efficacy on chickweed; settings: post-emergence, 528 h, applied alone at 35 g/ha, postemergence
Protocol: (§1) Seeds of the desired test plant species were planted in Sun Gro MetroMix® 306 planting mixture, which typically has a pH of 6.0 to 6.8 and an organic matter content of about 30 percent, in plastic pots with a surface area of 103.2 square centimeters (cm^2). When required to ensure good germination and healthy plants, a fungicide treatment and/or other chemical or physical treatment was applied. The plants were grown for 7-36 days (d) in a greenhouse with an approximate 14-hour (h) photoperiod which was maintained at about 23° C. during the day and 22° C. during the night. Nutrients and water were added on a regular basis and supplemental lighting was provided with overhead metal halide 1000-Watt lamps as necessary. The plants were employed for testing when they reached the second or third true leaf stage.
(§2) Weighed amounts of technical material were dissolved in a volume of 97:3 volume per volume (v/v) acetone/dimethyl sulfoxide (DMSO) to stock solutions. […] The concentrated stock solutions were diluted with an aqueous mixture of 1.5% v/v of Agri-dex crop oil concentrate to provide the appropriate application rates. Compound requirements are based upon a 12 milliliter (mL) application volume at a rate of 187 liters per hectare (L/ha). Stocks solutions of the safeners were prepared following the same procedure. Spray solutions of the safeners and experimental compound mixtures were prepared by adding the stock solutions to the appropriate amount of dilution solution to form a 12 mL spray solution in two-way combinations. Formulated compounds were applied to the plant material with an overhead Mandel track sprayer equipped with 8002E nozzles calibrated to deliver 187 L/ha over an application area of 0.503 square meters (m^2) at a spray height of 18 inches (43 centimeters (cm)) above average plant canopy. Control plants were sprayed in the same manner with the solvent blank. All herbicide application (component a) rates are in g ae/ha and all safener (component b) rates are in g ai/ha.
(§3) The treated plants and control plants were placed in a greenhouse as described above and watered by sub-irrigation to prevent wash-off of the test compounds. After 20-22 d, the condition of the test plants as compared with that of the control plants was determined visually and scored on a scale of 0 to 100 percent where 0 corresponds to no injury and 100 corresponds to complete kill. The condition of the test plants was compared with that of the control plants as determined visually and scored on a scale of 0 to 100 percent, where 0 corresponds to no injury and 100 corresponds to complete kill. Colby's equation was used to determine the herbicidal effects expected from the mixtures.

[2] = test system: wild pansy (VIOTR, Viola tricolor); experiment: Postemergence greenhouse trial, herbicidal efficacy on wild pansy; settings: applied alone at 35 g/ha, postemergence; for pest or weed control at 35 g/ha: Viola tricolor, post-emergence, 528 h, scored 20-22 d, read-out: Obs, % visual injury, VIOTR; for % visual injury, Obs, VIOTR: rated after 20-22 d
Protocol: as §1, §2, §3

[3] = test system: poinsettia (EPHHL, Euphorbia heterophylla); experiment: Postemergence greenhouse trial, herbicidal efficacy on poinsettia; settings: applied alone at 35 g/ha, postemergence; for pest or weed control at 35 g/ha: Euphorbia heterophylla, post-emergence, 528 h, rated after 20-22 d, read-out: % visual injury, Obs, EPHHL; for Obs, % visual injury, EPHHL: scored 20-22 d
Protocol: as §1, §2, §3

[4] = test system: pigweed (AMARE, Amaranthus retroflexus); experiment: Postemergence greenhouse trial, herbicidal efficacy on pigweed; settings: post-emergence, 528 h, applied alone at 35 g/ha, postemergence
Protocol: as §1, §2, §3

[5] = test system: velvetleaf (ABUTH, Abutilon theophrasti); experiment: Postemergence greenhouse trial, herbicidal efficacy on velvetleaf; settings: post-emergence, 528 h, applied alone at 35 g/ha, postemergence
Protocol: as §1, §2, §3

[6] = test system: thistle (CIRAR, Cirsium arvense); experiment: Postemergence greenhouse trial, herbicidal efficacy on thistle; settings: post-emergence, 528 h, applied alone at 35 g/ha, postemergence
Protocol: as §1, §2, §3

[7] = test system: winter rape (BRSNW, Brassica napus); experiment: Postemergence greenhouse trial, herbicidal efficacy on winter rape; settings: post-emergence, 528 h, applied alone at 35 g/ha, postemergence
Protocol: as §1, §2, §3

[8] = test system: sorghum (SORVU, Sorghum bicolor); experiment: Postemergence greenhouse trial, herbicidal efficacy on sorghum; settings: applied alone at 35 g/ha; for Obs, % visual injury, SORVU: scored 20-22 d
Protocol: as §1, §2, §3

[9] = test system: wild buckwheat (POLCO, Polygonum convolvulus); experiment: Postemergence greenhouse trial, herbicidal efficacy on wild buckwheat; settings: Fallopia convolvulus, post-emergence, 528 h, applied alone at 35 g/ha, postemergence
Protocol: as §1, §2, §3

[10] = test system: lambsquarters (CHEAL, Chenopodium album); experiment: Postemergence greenhouse trial, herbicidal efficacy on lambsquarters; settings: post-emergence, 528 h, applied alone at 35 g/ha, postemergence
Protocol: as §1, §2, §3

[11] = test system: wheat (TRZAS), Triticum aestivum (spring wheat); experiment: Postemergence greenhouse trial, crop injury (phytotoxicity/safening) on wheat; settings: applied alone at 35 g/ha, scored 20-22 d, 0 = no injury, 100 = complete kill
Protocol: as §1, §2, §3
The safener fenchlorazole-ethyl was combined with compound 1, compound 2, compound 3, compound 4, compound 5, and compound 6, and applied to wheat (TRZAS), and the phytotoxicity of the herbicidal compositions was measured. In addition, the efficacy of the herbicidal composition on velvetleaf (ABUTH, Abutilon theophrasti), pigweed (AMARE, Amaranthus retroflexus), winter rape (BRSNW, Brassica napus), lambsquarters (CHEAL, Chenopodium album), thistle (CIRAR, Cirsium arvense), nutsedge (CYPES, Cyperus esculentus), poinsettia (EPHHL, Euphorbia heterophylla), wild buckwheat (POLCO, Polygonum convolvulus), giant foxtail (SETFA, Setaria faberi), sorghum (SORVU, Sorghum bicolor), chickweed (STEME, Stellaria media), and wild pansy (VIOTR, Viola tricolor) was evaluated.
The safener isoxadifen-ethyl was combined with compound 1, compound 2, compound 3, compound 4, compound 5, and compound 6, and applied to wheat (TRZAS), and the phytotoxicity of the herbicidal compositions was measured. […]

[12] = test system: nutsedge (CYPES, Cyperus esculentus); experiment: Postemergence greenhouse trial, herbicidal efficacy on nutsedge; settings: applied alone at 35 g/ha
Protocol: as §1, §2, §3

[13] = test system: giant foxtail (SETFA, Setaria faberi); experiment: Postemergence greenhouse trial, herbicidal efficacy on giant foxtail; settings: applied alone at 35 g/ha
Protocol: as §1, §2, §3

[14] = rated after 20-22 d, read-out: % visual injury, Obs, STEME
[15] = scored 20-22 d, read-out: Obs, % visual injury, STEME
[16] = rated after 20-22 d, read-out: % visual injury, Obs, AMARE
[17] = scored 20-22 d, read-out: Obs, % visual injury, AMARE
[18] = rated after 20-22 d, read-out: % visual injury, Obs, ABUTH
[19] = rated after 20-22 d, read-out: % visual injury, Obs, CIRAR
[20] = scored 20-22 d, read-out: Obs, % visual injury, CIRAR
[21] = rated after 20-22 d, read-out: % visual injury, Obs, BRSNW
[22] = scored 20-22 d, read-out: Obs, % visual injury, BRSNW
[23] = rated after 20-22 d, read-out: % visual injury, Obs, POLCO
[24] = scored 20-22 d, read-out: Obs, % visual injury, POLCO
[25] = rated after 20-22 d, read-out: % visual injury, Obs, CHEAL
[26] = scored 20-22 d, read-out: Obs, % visual injury, CHEAL
[27] = scored 20-22 d, read-out: Obs, % visual injury, ABUTH

Structure (SMILES)	pest or weed control at 35 g/ha [1, 14] [%]	pest or weed control at 35 g/ha [1, 15] [%]	pest or weed control at 35 g/ha [2] [%]	% visual injury, Obs, VIOTR [2] [%]	pest or weed control at 35 g/ha [3] [%]	pest or weed control at 35 g/ha [4, 16] [%]	pest or weed control at 35 g/ha [4, 17] [%]	pest or weed control at 35 g/ha [5, 18] [%]	pest or weed control at 35 g/ha [6, 19] [%]	pest or weed control at 35 g/ha [6, 20] [%]	plant injury at 35 g/ha [7, 21] [%]	plant injury at 35 g/ha [7, 22] [%]	Obs, % visual injury, SORVU [8] [%]	pest or weed control at 35 g/ha [9, 23] [%]	pest or weed control at 35 g/ha [9, 24] [%]	pest or weed control at 35 g/ha [10, 25] [%]	pest or weed control at 35 g/ha [10, 26] [%]	Obs, % visual injury, EPHHL [3] [%]	pest or weed control at 35 g/ha [5, 27] [%]	also measured
Nc1c(F)c(-c2ccc3cc[nH]c3c2F)nc(C(=O)OCc2ccccc2)c1Cl [compound 2]	100	100	40	40	100	100	100	80	70	70	100	100	70	100	100	97	97			
COC(=O)c1nc(-c2ccc3ccn(C(C)=O)c3c2F)c(F)c(N)c1Cl [compound 3]							75			50		30			97		85	100	50	Obs, % visual injury, TRZAS [11]: 30%
CCOC(=O)c1nc(C(Cl)(Cl)Cl)n(-c2ccc(Cl)cc2Cl)n1 [fenchlorazole-ethyl, reference compound]	0	0	0		0	0	0	0	0	0	0	0	0	0	0	0	0	0	0	% visual injury, Obs, CYPES ([12]; rated after 20-22 d): 0%; Obs, % visual injury, CYPES ([12]; scored 20-22 d): 0%; % visual injury, Obs, SORVU ([8]; rated after 20-22 d): 0%; % visual injury, Obs, SETFA ([13]; rated after 20-22 d): 0%; Obs, % visual injury, SETFA ([13]; scored 20-22 d): 0%
Nc1c(F)c(-c2ccc3cc[nH]c3c2F)nc(C(=O)O)c1Cl [compound 1]	100	100	64	64	100	100	100	85	90	90	99	99		99	99	100	100	100	85	
